What follows are compounds tested against KRas G12D/Q61H double mutant (Homo sapiens (Human), UniProt P01116, G12D/Q61H) (assay: Ras GTP binding domain inhibition assay (labeled GTP)). Conditions: 20 μM compound; read-out: % Inhibition at 20 μM KRas G12D Q61H.
Procedure, shortened: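 Ni-plate capture of His-KRas (3-10 μg/ml, o/n, 4° C); Tris pH 7.5/MgCl2/DTT buffer, 1% DMSO. Cpd 20 μM or titration, 3 h RT. Cy3/Cy5-GTP 45 min RT, wash, fluorescence of bound GTP.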

Chain of KRas G12D/Q61H double mutant (P01116-2 other isoform, or with tags, fused parts or gaps G12D/Q61H): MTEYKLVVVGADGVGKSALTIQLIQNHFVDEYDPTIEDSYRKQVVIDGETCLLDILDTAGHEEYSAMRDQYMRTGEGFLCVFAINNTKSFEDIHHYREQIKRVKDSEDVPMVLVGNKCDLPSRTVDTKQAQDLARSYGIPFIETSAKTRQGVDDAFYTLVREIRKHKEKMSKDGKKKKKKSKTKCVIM

inhibition at 20 µM [%]	Compound
51 to 75	CS(=O)(=O)c1cccc(C(=O)N2CCCc3c(O)nc(-c4ccccn4)nc32)c1 [drawing 2647]
51 to 75	COCCCC(=O)N1CCCc2c(O)nc(-c3ccccn3)nc21 [drawing 2648]
25 to 50	O=C(c1cocn1)N1CCCc2c(O)nc(-c3ccccn3)nc21 [drawing 2649]
51 to 75	CS(=O)(=O)CCCC(=O)N1CCCc2c(O)nc(-c3ccccn3)nc21 [drawing 2650]
0	O=S(=O)(CCc1ccccc1)N1CCCc2c(O)nc(-c3ccccn3)nc21 [drawing 2651]
1 to 25	O=S(=O)(c1ccccc1)N1CCCc2c(O)nc(-c3ccccn3)nc21 [drawing 2652]
1 to 25	Nc1nc(O)c2scc(Br)c2n1 [drawing 2657]
1 to 25	CC1CCN(C(=O)c2csc3c(O)nc(N)nc23)CC1 [drawing 2658]
1 to 25	COCC1CCN(C(=O)c2csc3c(O)nc(N)nc23)CC1 [drawing 2659]
1 to 25	CCOCCC1CCN(C(=O)c2csc3c(O)nc(N)nc23)CC1 [drawing 2660]
25 to 50	COCCCC1CCN(C(=O)c2csc3c(O)nc(N)nc23)CC1 [drawing 2661]
1 to 25	Nc1nc(O)c2scc(C(=O)N3CCC(N4CCOCC4)CC3)c2n1 [drawing 2662]
25 to 50	Nc1nc(O)c2scc(C(=O)N3CCC(N4CCCC4=O)CC3)c2n1 [drawing 2663]
1 to 25	CCOC(=O)NC1CCN(C(=O)c2csc3c(O)nc(N)nc23)CC1 [drawing 2667]
1 to 25	Nc1nc(O)c2scc(C(=O)N(CCO)CCOCCO)c2n1 [drawing 2669]
1 to 25	Nc1nc(O)c2scc(C(=O)NCCc3cccnc3)c2n1 [drawing 2670]
1 to 25	Nc1nc(O)c2scc(C(=O)N3CCc4ccccc4CC3)c2n1 [drawing 2671]
25 to 50	COc1cc2c(cc1OC)CCN(C(=O)c1csc3c(O)nc(N)nc13)CC2 [drawing 2672]
51 to 75	CC1CCN(C(=O)c2csc3c(O)nc(-c4ccccn4)nc23)CC1 [drawing 2674]
25 to 50	COCC1CCN(C(=O)c2csc3c(O)nc(-c4ccccn4)nc23)CC1 [drawing 2675]
51 to 75	CCOCCC1CCN(C(=O)c2csc3c(O)nc(-c4ccccn4)nc23)CC1 [drawing 2676]
51 to 75	COCCCC1CCN(C(=O)c2csc3c(O)nc(-c4ccccn4)nc23)CC1 [drawing 2677]
25 to 50	O=C(c1csc2c(O)nc(-c3ccccn3)nc12)N1CCC(N2CCOCC2)CC1 [drawing 2678]
51 to 75	CCOC(=O)NC1CCN(C(=O)c2csc3c(O)nc(-c4ccccn4)nc23)CC1 [drawing 2685]
51 to 75	COCCOCCN(C)C(=O)c1csc2c(O)nc(-c3ccccn3)nc12 [drawing 2686]
25 to 50	CN(CCc1ccncc1)C(=O)c1csc2c(O)nc(-c3ccccn3)nc12 [drawing 2688]
25 to 50	O=C(c1csc2c(O)nc(-c3ccccn3)nc12)N1CCc2ccccc2CC1 [drawing 2690]
51 to 75	COc1cc2c(cc1OC)CCN(C(=O)c1csc3c(O)nc(-c4ccccn4)nc13)CC2 [drawing 2691]

Same assay, conditions: 20 μM; read-out: KRas G12D Q61H % Inh.

inhibition at 20 µM [%]	Compound
51 to 75	Cc1cccc(C)c1OCCOC(=O)c1ccccc1SCCOc1c(C)cccc1C [drawing 2636]
25 to 50	Oc1nc(-c2ccccn2)nc2c1CCCN2 [drawing 2637]
76 to 100	O=C(COc1ccccc1)N1CCCc2c(O)nc(-c3ccccn3)nc21 [drawing 2638]
76 to 100	COc1ccc(COCC(=O)N2CCCc3c(O)nc(-c4ccccn4)nc32)cc1 [drawing 2639]
1 to 25	CN(CC(=O)N1CCCc2c(O)nc(-c3ccccn3)nc21)S(=O)(=O)c1ccccc1 [drawing 2641]
25 to 50	CS(=O)(=O)N1CCCc2cc(C(=O)N3CCCc4c(O)nc(-c5ccccn5)nc43)ccc21 [drawing 2645]

Same assay, conditions: read-out: KRas G12D Q61H IC50

IC50 [µM]	Compound
< 5	COc1ccc(COCC(=O)N2CCCc3c(O)nc(-c4ccccn4)nc32)cc1 [drawing 2639]

Same assay, conditions: serial dilution; read-out: KRas G12D Q61H (classes E-H, IC50)

IC50 [µM]	Compound
5 to 10	CS(=O)(=O)c1cccc(C(=O)N2CCCc3c(O)nc(-c4ccccn4)nc32)c1 [drawing 2647]

— US10940139B2, “Compounds that interact with the Ras superfamily for the treatment of cancers, inflammatory diseases, rasopathies, and fibrotic disease” (Shy Therapeutics LLC, priority 2017, dated 2021)
